The record followed here is patent US7271130B2 (priority 2002, dated 2007).

This experiment has as its system Erysiphe graminis f.sp. hordei. The experiment is classed as in vivo. The note with it: 200 ppm.

Regarding `CC#CC(C)(C)NC(=O)C(COC)Oc1cc(Cl)cc(Cl)c1` (stereo not shown) [4(1), 2-(3,5-dichlorophenoxy)-3-methoxy-N-(4-methylpent-2-yn-4-yl)propionamide], the “control of fungal infection” value is “at least 70%”.
